# Assay results: US11266701B2, “Synergistic combinations of caffeine, ginkgo biloba and beta-phenylethylamine” (TRINUTRA LTD., priority 2016, dated 2022)
# System: murine macrophage cell line, RAW 264.7
# Experiment: Nitric oxide (NO) release from LPS-induced RAW 264.7 cells (Griess Reagent System)
# Format: cell-based
# Protocol: 10^5 cells from a murine macrophage cell line, RAW 264.7, were seeded in 96-well plates in a medium containing 1% FBS, 1% Glutamine and 1% Pen/strep in DMEM. […] In addition, positive control cells were treated with 20 μM dexamethasone. Nitric oxide (NO) release was tested after incubation at 37° C., 5% CO2 using the Griess Reagent System. The method is based on the chemical diazotization reaction that was originally described by Griess in 1879, which uses sulfanilamide and N-1-napthylethylenediamine dihydrochloride (NED) under acidic (phosphoric acid) conditions. This system detects NO2^− in a variety of biological and experimental liquid matrices such as tissue culture medium that was tested in this study.
Structure (SMILES),"NO release as % of LPS-only negative control (FIG. 1: 240 μg/ml Ginkgo biloba, 500 μg/ml PEA, tested separately, LPS 5 ng/ml, 22 hours)","NO release as % of LPS-only negative control (FIG. 2: 240 μg/ml Ginkgo biloba, 120 μg/ml PEA, tested separately, LPS 5 ng/ml, 22 hours)","reduction in NO release (FIG. 3: 630 μg/ml PEA alone, C+G+P = 390 μg/ml caffeine + 40 μg/ml Ginkgo biloba + 630 μg/ml PEA)","effect on NO release (FIG. 4: 630 μg/ml PEA alone, binary combination 390 μg/ml caffeine + 630 μg/ml PEA)","NO release inhibition (FIG. 5: 40 μg/ml Ginkgo biloba, 630 μg/ml PEA, separately and as binary combination)","effect on NO release compared with dexamethasone positive control (FIGS. 3-6: 390 μg/ml caffeine, 40 μg/ml Ginkgo biloba, 630 μg/ml PEA)","effect on NO release (FIG. 1: 40 μg/ml caffeine tested separately, LPS 5 ng/ml, 22 hours)","effect on NO release (FIG. 2: 40 μg/ml caffeine tested separately, LPS 5 ng/ml, 22 hours)","effect on NO release (FIG. 3: 390 μg/ml caffeine, 40 μg/ml Ginkgo biloba, tested separately)"
"NCCc1ccccc1 [PEA, β-phenylethylamine]",~85%,95%,20%,significant reduction,a certain degree of NO release inhibition,considerably less than that seen in the positive control,–,–,–
Cn1c(=O)c2c(ncn2C)n(C)c1=O [caffeine],–,–,–,–,–,–,essentially without effect,essentially without effect,slight reduction
